Data reported in US5256782A, “Thienopyridine derivatives which are intermediates” (Takeda Chemical Industries, Ltd., priority 1990, dated 1993).

Biological target: T1, acyl-CoA: cholesterol acyltransferase (ACAT) (Rattus norvegicus, UniProt Q7TQM4)
T1 construct: microsome fraction of the tunica mucosa intestini tenuis; from tissue; host or cells: microsome fraction of small-intestinal mucosa, Sprague-Dawley male rat (six weeks old, fasted 20 hours)
T1 sequence (Q7TQM4 1-524): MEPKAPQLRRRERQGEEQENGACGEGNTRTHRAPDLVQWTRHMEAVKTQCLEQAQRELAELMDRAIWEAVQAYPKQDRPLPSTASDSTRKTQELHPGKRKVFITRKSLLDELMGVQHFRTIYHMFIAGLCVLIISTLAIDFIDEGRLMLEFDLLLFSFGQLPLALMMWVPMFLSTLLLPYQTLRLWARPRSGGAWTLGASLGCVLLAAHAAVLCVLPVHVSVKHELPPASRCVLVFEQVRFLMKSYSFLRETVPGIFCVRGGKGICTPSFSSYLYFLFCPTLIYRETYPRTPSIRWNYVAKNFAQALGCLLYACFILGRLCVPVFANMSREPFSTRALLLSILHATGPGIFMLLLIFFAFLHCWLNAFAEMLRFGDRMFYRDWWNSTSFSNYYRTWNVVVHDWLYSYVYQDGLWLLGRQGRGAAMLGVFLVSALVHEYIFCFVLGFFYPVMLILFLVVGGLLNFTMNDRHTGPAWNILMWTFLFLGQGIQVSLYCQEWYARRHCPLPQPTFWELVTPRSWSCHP
Assay: ACAT inhibitory activity (labeled cholesterol ester formation from [1-14C]oleoyl-CoA and endogenous cholesterol; microsome fraction of rat tunica mucosa intestini tenuis)
Format: biochemical, Spregue-Dawley male rat
Conditions: 10^-6 M; read-out: ACAT inhibitory rate (labeled cholesterol ester formation inhibitory rate)
Method: An enzyme specimen ACAT was prepared from a microsome fraction of the tunica mucosa intestini tenuis of Spregue-Dawley male rat (six week old) which had been subjected to fasting for 20 hours according to the method described in Journal of Lipid Research, 24, 1127 (1982).
ACAT activity was calculated by measuring an amount of a labeled cholesterol ester formed from [1-^14 C]oleoyl-CoA and endogenous cholesterol according to the process of Helgerud et al. [Journal of Lipid Research, 22, 271 (1981)].
ACTA inhibitory activity of compounds tested are shown in Table 1 by a labeled cholesterol ester formation inhibitory rate (%) obtained by addition of the test compounds in an amount of 10^-6 M.

Structure (SMILES) | inhibition at 1 µM [%]
CCc1cc2c(-c3ccccc3Cl)c(NC(=O)Nc3ccc(F)cc3F)cnc2s1 [Example 1, N-[4-(2-chlorophenyl)-2-ethylthieno[2,3-b]pyridin-5-yl]-N'-(2,4-difluorophenyl)urea] | 98.7
CCc1cc2c(-c3ccccc3Cl)c(NC(=O)C=Cc3cc(OC)c(OC(C)=O)c(OC)c3)cnc2s1 [Example 2, 5-(4-Acetoxy-3,5-dimethoxycinnamoylamino)-4-(2-chlorophenyl)-2-ethylthieno[2,3-b]pyridine] | 74.3
CCc1cc2c(-c3ccccc3Cl)c(NC(=O)Nc3ccc(F)cc3F)c(=O)n(C)c2s1 [Example 3, N-[4-(2-chlorophenyl)-6,7-dihydro-2-ethyl-7-methyl-6-oxothieno[2,3-b]pyridin-5-yl]-N'-(2,4-difluorophenyl)urea] | 99.6
CCc1cc2c(-c3ccccc3Cl)c(NC(=O)Nc3ccc(Cl)cc3)cnc2s1 [Example 4, N-(4-chlorophenyl)-N'-[4-(2-chlorophenyl)-2-ethylthieno[2,3-b]pyridin-5-yl]urea] | 93.6
Cc1sc2ncc(NC(=O)Nc3ccc(F)cc3F)c(-c3ccccc3Cl)c2c1C [Example 5, N-[4-(2-chlorophenyl)-2,3-dimethylthieno[2,3-b]pyridin-5-yl]-N'-(2,4-difluorophenyl)urea] | 93.9
O=C(Nc1ccc(F)cc1F)Nc1cnc2sc3c(c2c1-c1ccccc1Cl)CCC3 [Example 6, N-[4-(2-chlorophenyl)-6,7-dihydro-5H-cyclopenta[1',2':5,4]thieno[2,3-b]pyridin-3-yl]-N'-(2,4-difluorophenyl)urea] | 96.3
O=C(Nc1cnc2sc3c(c2c1-c1ccccc1Cl)CCC3)c1ccc(F)cc1F [Example 7, 4-(2-chlorophenyl)-3-(2,4-difluorobenzoylamino)-6,7-dihydro-5H-cyclopenta[1',2':5,4]thieno[2,3-b]pyridine] | 34.4
O=C(Cc1ccc(F)cc1F)Nc1cnc2sc3c(c2c1-c1ccccc1Cl)CCC3 [Example 8, 4-(2-chlorophenyl)-3-(2,4-difluorophenylacetylamino)-6,7-dihydro-5H-cyclopenta-[1',2':5,4]thieno-[2,3-b]pyridine] | 94.4
Cc1ccccc1-c1c(NC(=O)Nc2ccc(F)cc2F)cnc2sccc12 [Example 9, N-(2,4-difluorophenyl)-N'-[4-(2-methylphenyl)-thieno[2,3-b]pyridin-5-yl]urea] | 60.2
Cc1cc2c(-c3ccccc3Cl)c(NC(=O)Nc3ccc(F)cc3F)cnc2s1 [Example 10, N-[4-(2-chlorophenyl)-2-methylthieno[2,3-b]pyridin-5-yl]-N'-(2,4-difluorophenyl)urea] | 95.1
Cc1ccccc1-c1c(NC(=O)Nc2ccc(F)cc2F)cnc2sc(Cl)cc12 [Example 11, N-[2-chloro-4-(2-methylphenyl)thieno[2,3-b]pyridin-5-yl]-N'-[2,4-difluorophenyl)urea] | 94.5
CCc1cc2c(-c3ccccc3OC)c(NC(=O)Nc3cc(C)c(OC(C)=O)c(C)c3)cnc2s1 [Example 13, N-(4-acetoxy-3,5-dimethylphenyl)-N'-[2-ethyl-4-(2-methoxyphenyl)thieno[2,3-b]pyridin-5-yl]urea] | 97.5
CCc1cc2c(-c3ccccc3OC)c(NC(=O)Nc3cc(OC)c(OC(C)=O)c(OC)c3)cnc2s1 [Example 14, N-(4-acetoxy-3,5-dimethoxyphenyl)-N'-[2-ethyl-4-(2-methoxyphenyl)thieno[2,3-b]pyridin-5-yl]urea] | 91.9

Biological target: T1, acyl-CoA: cholesterol acyltransferase (ACAT)
Assay: as above
Format: biochemical, Spregue-Dawley male rat
Conditions: 0.5 × 10^-6 M; read-out: ACAT inhibitory rate (labeled cholesterol ester formation inhibitory rate)

Structure (SMILES) | inhibition at 0.5 µM [%]
O=C(Nc1ccc(F)cc1F)Nc1cnc2sc3c(c2c1-c1ccccc1Cl)CCCC3 [Example 12, N-[4-(2-chlorophenyl)-5,6,7,8-tetrahydro[1]-benzothieno[2,3-b]pyridin-3-yl]-N'-(2,4-difluorophenyl)urea] | 82.3
